In experiment [1] the test system is fibroid. As to conditions: Murphy 1995, Zeng 1998; cited from earlier work.
Experiment [2] has as its system fibroid tissue. Kind of experiment: Gene expression profiling (Affymetrix microarray, RT-PCR) of fibroid tissue after 90 days treatment. The experiment is classed as in vivo, human (women). Here is the method: (§1) Pre-menopausal women with symptomatic fibroids received ulipristal (10 or 20 mg; n=12) or placebo (PL) (n=6) in a blinded, randomized allocation, for 90 days before hysterectomy. No other hormonal therapy was given. Fibroid tissue and adjacent myometrium were collected at surgery and processed in RNAlater (for RNA isolation). Fibroid tissue also was processed for paraffin embedding (for immunohistochemisty (IHC) and TUNEL assay). Total RNA was used for Affymetrix microarray with the U133 Plus 2.0 human chip. Differential transcription of genes of interest was confirmed by RT-PCR analysis. The TUNEL assay and IHC for Ki67 and phosphorylaied histone 3 (phospho H3) were applied to paraffin embedded tissue sections, and the percentage of positive stained cells was noted to assess apoptosis and proliferation. RT-PCR results and proliferation assays were analyzed using two-tailed student t-test; Kruskal-Wallis test was used to assess TUNEL assay results; P<0.05 was considered significant.

Experiment [3] has as its system fibroid tissue. In words: TUNEL assay and IHC for Ki67 and phospho H3 on fibroid tissue sections (apoptosis and proliferation). As to conditions: compared to placebo. The experiment is classed as in vivo, human (women). Here is the method:
as §1

Experiment [4] deals with uterine fibroids. In words: Randomized, placebo-controlled, double blinded, parallel trial: change in total fibroid volume by MR imaging. The experiment is classed as in vivo, human (women). As to conditions: for reduction in fibroid volume: three months (90 days), placebo +6%. The text has this:
(§2) Healthy women aged 33-50 years with symptomatic fibroids and regular menstrual cycles were considered for enrollment.
(§3) Inclusion criteria included regular cycles and contraceptive use, and symptomatic fibroids as defined by ACOG practice bulletin 1994: • Excessive uterine bleeding evidenced by either of the following: profuse bleeding with flooding or clots or repetitive periods lasting for more than 8 days; or anemia due to acute or chronic blood loss; • or pelvic discomfort caused by leiomyomata, either acute or severe or chronic lower abdominal or low back pressure or bladder pressure with urinary frequency not due to urinary tract infection.
(§4) Exclusion criteria included pregnancy, hemoglobin <10 g/dL, current hormone therapy, rapidly enlarging uterus and FSH […]. MR images were obtained to record fibroid number, location and volume, before starting study drug and within 2 weeks of surgery. Women took ulipristal at an oral dose of 10 or 20 mg, or placebo (PLC: microcrystalline cellulose) for 3 cycles, or 90 days if they became anovulatory. The percent change in total fibroid volume was compared, Wilcoxon rank sum test and t-test were used as needed.

In experiment [5] the test system is menstrual bleeding in women with symptomatic fibroids. Kind of experiment: Randomized placebo-controlled trial: menstrual function / bleeding. The experiment is classed as in vivo, human (women). As to conditions: for menstrual bleeding: 3 cycles/90 days, placebo had monthly menses; for menses compared to placebo: 10 or 20 mg daily, 90 days.
Description: as §2, §3, §4
Additional analyses evaluated treatment-related differences in menstrual function.

For experiment [6], the system named is benign metastatic leiomyoma. Kind of experiment: Compassionate treatment of benign metastatic leiomyoma (single patient). The experiment is classed as in vivo, human. As to conditions: daily oral dose of 10-20 mg. On the procedure:
A person with known benign metastatic leiomyoma status post abdominal surgery that confirmed multiple nodules was treated with ulipristal (daily oral dose of 10-20 mg), in a compassionate protocol. […] More importantly, their pulmonary function tests improved from 50% of predicted to 103% of predicted after 3 months of treatment. They felt better.

For the compound `CC#C[C@]1(O)CC[C@H]2[C@@H]3CCC4=CC(=O)CCC4=C3[C@@H](c3ccc(N(C)C)cc3)C[C@@]21C` [mifepristone], the fibroid size entry in experiment [1] is reported as “reduced fibroid size in a dose-dependent manner”.
Consider “17α-acetoxy-11β-[4N,N-dimethylamino-phenyl) -19-norpregna- 4,9-diene-3,20-dione [ulipristal]”, for which the “genes expressed differentially between ulipristal and placebo” value in experiment [2] (microarray, 2 fold change cut-off and P<0.02) is given as 314 genes. The “Fold change of RT-PCR gene product, NDP” value in experiment [2] (ulipristal (10 or 20 mg, 90 days) treated compared to placebo, P 0.001) is listed as −5.6. Also, the “Fold change of RT-PCR gene product, PLP1” value in experiment [2] (ulipristal (10 or 20 mg, 90 days) treated compared to placebo, P 0.006) stood at 9.2. Further, in experiment [2] (ulipristal (10 or 20 mg, 90 days) treated compared to placebo, P 0.008), the “Fold change of RT-PCR gene product, Wnt5A” value is −2.4. Also, in experiment [2] (ulipristal (10 or 20 mg, 90 days) treated compared to placebo, P 0.014), the “Fold change of RT-PCR gene product, ZAK” value is on record as 1.5. Also, the “Fold change of RT-PCR gene product, FAIM” value in experiment [2] (ulipristal (10 or 20 mg, 90 days) treated compared to placebo, P 0.017) is −1.8. Further, in experiment [2] (ulipristal (10 or 20 mg, 90 days) treated compared to placebo, P 0.019), the “Fold change of RT-PCR gene product, Clu” value is listed as −2.1. Besides, in experiment [2] (ulipristal (10 or 20 mg, 90 days) treated compared to placebo, P 0.224), the “Fold change of RT-PCR gene product, Bcl2” value is on record as −1.5. Besides, the measures of proliferation entry in experiment [3] (IHC Ki67 and phospho H3, fibroids after 90 days 10 or 20 mg) is “decreased measures of proliferation”. For the same compound, the measures of apoptosis entry in experiment [3] (TUNEL assay, fibroids after 90 days 10 or 20 mg) is “increased measures of apoptosis”. Moreover, the “change in total fibroid volume” value in experiment [4] (10 mg and 20 mg groups combined, three months, placebo 6%, p=0.01) is -29%. Moreover, the results for the “reduction in fibroid volume” value in experiment [4] (10 mg oral daily) and in experiment [4] (20 mg oral daily) were 36% and 21%, respectively. Also, the menstrual bleeding result is recorded as “single episode of menstrual bleeding” in experiment [5] (10 mg oral daily) and “no woman receiving 20 mg had any bleeding” in experiment [5] (20 mg oral daily). The “menses compared to placebo” value in experiment [5] is “induced amenorrhea”; in experiment [5] (listed as CDB-2914) it was “significant reduction in menses”. The liver nodule entry in experiment [6] is reported as “decrease in a liver nodule”. The right pleural effusion result in experiment [6] is listed as “resolution of a right pleural effusion”. The pulmonary function tests in experiment [6] (after 3 months of treatment, improved from 50% of predicted) was 103 % of predicted. Moreover, in experiment [6] (two uterine fibroids), the uterine fibroids entry is “some decrease in two uterine fibroids”.

The values are drawn from patent publication US20170246189A1, “METHOD FOR TREATING UTERINE FIBROIDS” (LABORATOIRE HRA-PHARMA, priority 2008, published 2017).
